Source: patent US20040010036A1, “N,N, -Substituted s-Aryl-Isothioureas, N,N,N, -Substituted s-Aryl-Isothioureas and combinatorial libraries thereof” (priority 2002, published 2004)

Each molecule was assayed on Streptococcus pyogenes (ATCC# 97-03 14289) (assay: Anti-microbial screen (percent inhibition of growth, OD 570 nm)). Conditions: Spy4H: Streptococcus pyogenes, read at 4 hours, OD 570 nm; Conc 0.1776 mg ml.
Type: cell-based
Procedure: Streptococcus pyogenes (ATCC# 97-03 14289) was grown in Todd Hewitt Broth (THB) (Difco Laboratories #0492-17-6) overnight until reaching an optical density of (OD=0.636@570 nm) by reading 0.1 ml in a 96 well microtiter plate in a Molecular Devices Thermomax. This preparation was kept frozen as stocks in 30% v/v glycerol in 1.5 ml aliquots at […] until use. Prior to experiments, 6 ml aliquots were thawed and diluted into 50 ml 2×THB. 60 ul of this dilution was added to 92 wells of microtiter plate. To three wells THB (200 ul) was added to serve as a blank and a sterility control. Test compounds in DMSO and appropriate concentrations of DMSO were added to Growth/Solvent Controls at 0 time. Plates were read at 0 time at 570 nm in the Molecular Devices plate reader to obtain compounds correction factors for insoluble or colored compounds. Plates were read again at 4 hours.
Percent inhibition is calculated with the following formula:
Color correct=O.D. 0 hr - Blank 0 hr)-(Solvent Control Ohr - Blank 0 hr) [formula]

Structure (SMILES) | inhibition of growth at 177.6 µg/mL
Cc1cccc(S/C(=N\Cc2ccc(F)cc2)N(CCc2ccc(Cl)cc2)Cc2ccc(O)cc2)c1 [Cmpd 1164] | 72.2%
Cc1cccc(S/C(=N/c2ccc(C(F)(F)F)cc2)N(Cc2cccc(O)c2)CC(C)C)c1 [Cmpd 527] | 96.4%
Cc1ccc(CN(Cc2ccc(O)cc2)/C(=N\c2ccc(Cl)c([N+](=O)[O-])c2)Sc2ccc(C)cc2C)cc1 [Cmpd 23] | 61.3%
CCCCN(Cc1cccc(O)c1)/C(=N\c1ccc(Cl)c(C(F)(F)F)c1)Sc1ccccc1 [Cmpd 753] | 66%
Cc1ccc(CN(Cc2cccc(O)c2)/C(=N/c2cc(Cl)cc(Cl)c2)Sc2ccc(C)cc2)cc1 [Cmpd 413] | 57.6%
COc1cccc(S/C(=N\c2cccc(C(F)(F)F)c2)N(Cc2ccc(O)cc2)Cc2ccc(Cl)c(Cl)c2)c1 [Cmpd 46] | 60.6%
COCCN(Cc1cccc(O)c1)/C(=N\c1ccc(F)cc1F)Sc1ccc(C)cc1C [Cmpd 85] | 82.3%
COCCN(Cc1cccc(O)c1)/C(=N\c1ccc(C)cc1)Sc1ccc(C)cc1C [Cmpd 90] | 81.3%
Cc1cccc(S/C(=N\c2ccc(Cl)c([N+](=O)[O-])c2)N(CCc2ccc(Cl)cc2)Cc2ccc(O)cc2)c1 [Cmpd 1183] | 62.7%
COc1cccc(CN(Cc2ccc(O)cc2)/C(=N/c2ccc(Cl)c(C(F)(F)F)c2)Sc2cccc(C)c2)c1 [Cmpd 1113] | 64.3%
Cc1cccc(S/C(=N\c2ccc(C(F)(F)F)cc2)N(CCc2ccc(Cl)cc2)Cc2ccc(O)cc2)c1 [Cmpd 1167] | 94.3%
COCCN(Cc1ccc(O)cc1)/C(=N\c1ccc(Cl)c(C(F)(F)F)c1)Sc1ccc(C)cc1 [Cmpd 673] | 72.8%
COCCN(Cc1ccc(O)cc1)/C(=N\c1ccc(Cl)c([N+](=O)[O-])c1)Sc1ccc(C)cc1C [Cmpd 1063] | 73.8%
Cc1cccc(S/C(=N\c2ccc(F)c(Cl)c2)N(CCc2ccc(Cl)cc2)Cc2cccc(O)c2)c1 [Cmpd 694] | 62.5%
Cc1cccc(S/C(=N\c2cc(Cl)cc(Cl)c2)N(Cc2ccccc2)Cc2cccc(O)c2)c1 [Cmpd 1133] | 70.1%
Oc1cccc(CN(Cc2ccc(Cl)c(Cl)c2)/C(=N/c2ccc(C(F)(F)F)cc2)Sc2ccccc2)c1 [Cmpd 847] | 90.3%
Cc1cccc(S/C(=N/c2ccc(C(F)(F)F)cc2)N(Cc2ccccc2)Cc2cccc(O)c2)c1 [Cmpd 1127] | 88.6%

Structure (SMILES) | inhibition of growth at 177.6 µg/mL
COc1cccc(S/C(=N\c2ccc(Cl)c([N+](=O)[O-])c2)N(Cc2ccc(O)cc2)Cc2ccc(Cl)c(Cl)c2)c1 [Cmpd 63] | 66.8%
Cc1ccc(S/C(=N/c2cc(Cl)cc(Cl)c2)N(Cc2ccc(O)cc2)CC(C)C)cc1 [Cmpd 253] | 66.5%
COCCN(Cc1ccc(O)cc1)/C(=N\c1ccc(F)c(F)c1)Sc1ccc(C)cc1 [Cmpd 676] | 87.5%
COc1ccc(C)cc1/N=C(/Sc1cccc(C)c1)N(Cc1cccc(O)c1)CC(C)C [Cmpd 549] | 62.9%
COc1cccc(CCN(Cc2cccc(O)c2)/C(=N/c2ccc(F)c(Cl)c2)Sc2ccccc2)c1 [Cmpd 814] | 57.8%
Cc1ccc(S/C(=N\c2ccc(Cl)c(C(F)(F)F)c2)N(Cc2ccc(O)cc2)Cc2ccc(Cl)c(Cl)c2)cc1 [Cmpd 1233] | 61.5%
COc1cccc(S/C(=N\Cc2cccc(C)c2)N(CCc2ccc(F)cc2)Cc2cccc(O)c2)c1 [Cmpd 922] | 84.3%
Oc1cccc(CN(Cc2ccc(Cl)c(Cl)c2)/C(=N/c2cc(Cl)cc(Cl)c2)Sc2ccccc2)c1 [Cmpd 853] | 60.2%
CCCCN(Cc1cccc(O)c1)/C(=N\c1cc(Cl)cc(Cl)c1)Sc1ccccc1 [Cmpd 733] | 63.5%
Cc1ccc(CN(Cc2ccc(O)cc2)/C(=N/c2cc(Cl)cc(Cl)c2)Sc2ccc(C)cc2C)cc1 [Cmpd 13] | 65.7%
COCCN(Cc1cccc(O)c1)/C(=N\c1ccc(Cl)c([N+](=O)[O-])c1)Sc1ccc(C)cc1C [Cmpd 103] | 58.9%
COc1cccc(S/C(=N\c2cc(Cl)cc(Cl)c2)N(CCc2ccc(F)cc2)Cc2cccc(O)c2)c1 [Cmpd 933] | 59.8%
COc1cccc(S/C(=N\Cc2ccc(F)cc2)N(Cc2ccc(O)cc2)Cc2ccc(Cl)c(Cl)c2)c1 [Cmpd 44] | 67.5%
COCCN(Cc1cccc(O)c1)/C(=N\c1ccccc1F)Sc1ccc(C)cc1C [compound 107] | 75.8%
COc1cccc(S/C(=N\c2ccc(C(F)(F)F)cc2)N(CCc2ccc(Cl)cc2)Cc2ccc(O)cc2)c1 [Cmpd 367] | 70.5%
COc1cccc(CN(Cc2ccc(O)cc2)/C(=N/c2cc(C)ccc2OC)Sc2cccc(C)c2)c1 [Cmpd 1109] | 57.8%
CCc1ccc(/N=C(\Sc2ccc(C)cc2C)N(Cc2cccc(O)c2)CC2CCCCC2)cc1 [Cmpd 1260] | 57.3%

Same assay, conditions: Streptococcus pyogenes; Assay Spy4H; Conc 0.1776 mg ml; plates read at 570 nm at 0 time and at 4 hours

Structure (SMILES) | inhibition of growth at 177.6 µg/mL
COc1cccc(CN(Cc2ccc(O)cc2)/C(=N/c2ccc(C(F)(F)F)cc2)Sc2cccc(OC)c2)c1 [Cmpd 767] | 52.4%
COCCN(Cc1cccc(O)c1)/C(=N\c1cc(C)ccc1OC)Sc1ccc(C)cc1C [Cmpd 109] | 56.3%
COc1ccc(C)cc1/N=C(\Sc1cccc(C)c1)N(Cc1ccc(C)cc1)Cc1cccc(O)c1 [Cmpd 469] | 53%
Cc1cccc(S/C(=N/Cc2ccccc2)N(Cc2cccc(O)c2)CC(C)C)c1 [Cmpd 521] | 50.6%
Cc1ccc(S/C(=N/Cc2ccccc2)N(Cc2ccc(O)cc2)CC(C)C)cc1 [Cmpd 241] | 49.8%
CCc1cccc(/N=C(/Sc2ccc(C)cc2)N(CCOC)Cc2ccc(O)cc2)c1 [Cmpd 658] | 53%
Cc1cccc(S/C(=N\c2ccccc2[N+](=O)[O-])N(Cc2ccccc2)Cc2cccc(O)c2)c1 [Cmpd 1146] | 56.4%
Cc1cccc(S/C(=N/c2ccc(OC(F)(F)F)cc2)N(Cc2ccccc2)Cc2cccc(O)c2)c1 [Cmpd 1155] | 49.4%
COc1cccc(S/C(=N\Cc2cccc(C)c2)N(CCc2ccc(Cl)cc2)Cc2ccc(O)cc2)c1 [Cmpd 362] | 50.9%
Oc1cccc(CN(Cc2ccc(Cl)c(Cl)c2)/C(=N/c2cccc(Cl)c2)Sc2ccccc2)c1 [Cmpd 852] | 50%
Cc1ccc(S/C(=N/c2ccc(Cl)c(Cl)c2)N(Cc2ccc(O)cc2)CC(C)C)cc1 [Cmpd 248] | 55%
Cc1ccc(S/C(=N\c2ccc(Cl)c(Cl)c2)N(Cc2ccc(O)cc2)Cc2cccc(Cl)c2)cc1 [Cmpd 168] | 49.5%
Cc1cccc(S/C(=N/c2cccc(C(F)(F)F)c2)N(Cc2cccc(O)c2)CC(C)C)c1 [Cmpd 526] | 50%
COCCN(Cc1cccc(O)c1)/C(=N\c1ccc(F)c(Cl)c1)Sc1ccc(C)cc1C [Cmpd 94] | 54%
Cc1cccc(S/C(=N\c2ccccc2[N+](=O)[O-])N(CCc2ccc(Cl)cc2)Cc2ccc(O)cc2)c1 [Cmpd 1186] | 52.9%
Cc1ccc(CN(Cc2cccc(O)c2)/C(=N/c2cc(Cl)cc(Cl)c2)Sc2ccc(C)cc2C)cc1 [Cmpd 213] | 57.1%
Cc1ccc(S/C(=N/c2ccc(Cl)c(C(F)(F)F)c2)N(Cc2ccccc2)Cc2ccc(O)cc2)c(C)c1 [Cmpd 513] | 52.9%
